According to PubChem BioAssay (NCI):
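Results reflect a 48-hour exposure of cells in 96-well plates to compound at five concentrations. At the GI50, growth is halved. TGI denotes the concentration required for complete inhibition of growth.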

Legend:
Assay in all cases: NCI-60 cell line screen, 48 h
MDA-N = test system: MDA-N
T-47D breast = test system: T-47D breast
LXFL 529 NSCLC = test system: LXFL 529 NSCLC
KM20L2 colon = test system: KM20L2 colon
XF 498 CNS = test system: XF 498 CNS
DLD-1 colon = test system: DLD-1 colon
SNB-78 CNS = test system: SNB-78 CNS
HOP-18 NSCLC = test system: HOP-18 NSCLC
RXF-631 renal = test system: RXF-631 renal

CC(NC(=O)C1(N)CCCC1)C(=O)O (stereo not drawn)
TGI (MDA-N): > 100 µM
TGI (T-47D breast): > 100 µM

Cc1ccc(Sc2cc([N+](=O)[O-])cc(Sc3ccc(C)cc3)c2Sc2ccc(C)cc2)cc1
TGI (LXFL 529 NSCLC): > 100 µM
TGI (KM20L2 colon): > 100 µM
TGI (XF 498 CNS): > 100 µM
TGI (DLD-1 colon): > 100 µM
TGI (SNB-78 CNS): > 100 µM

COc1ccc(/C=C/c2cnnc3ccccc23)cc1OC
TGI (MDA-N): > 10 µM
TGI (T-47D breast): > 10 µM

COC(=O)/C=C/c1cc(OC)c2c(c1)[C@@H](C(=O)OC)[C@H](c1ccc(OC)c(OC)c1)O2
GI50 (T-47D breast): 4.99 µM
TGI (T-47D breast): > 100 µM

c1ccc(Oc2cnc3ccccc3n2)cc1
GI50 (T-47D breast): 75.5 µM
TGI (T-47D breast): > 100 µM

O=C1OC(/C=C/c2ccccc2)C(=O)C1=O (stereo not drawn)
TGI (LXFL 529 NSCLC): > 100 µM
TGI (KM20L2 colon): > 100 µM
TGI (XF 498 CNS): > 100 µM
TGI (HOP-18 NSCLC): > 100 µM
TGI (DLD-1 colon): > 100 µM

O=C(c1ccccc1)C(c1ccccc1)C1(O)C(=O)Nc2ccc(Br)cc21 (stereo not drawn)
TGI (LXFL 529 NSCLC): 53.1 µM
TGI (RXF-631 renal): > 100 µM
TGI (KM20L2 colon): > 100 µM
TGI (DLD-1 colon): > 100 µM
TGI (SNB-78 CNS): > 100 µM

COc1cccc(-c2nn(C)c3sc(C(=O)NCCN4CCN(c5ccccc5F)CC4)cc23)c1
GI50 (T-47D breast): 4.32 µM
TGI (T-47D breast): > 100 µM

COc1cccc(/C=N/[N-]C(N)=O)c1[O-].[Cu+2].c1ccncc1
TGI (KM20L2 colon): > 100 µM

CC(=O)SC(C[N+](=O)[O-])c1ccccc1 (stereo not drawn)
TGI (MDA-N): 9.77 µM
TGI (T-47D breast): > 71.3 µM

Nc1ncnc2c1c(-c1ccc(Oc3ccccc3)cc1)nn2C[C@H]1SSC[C@H]1O
GI50 (T-47D breast): 0.205 µM
TGI (T-47D breast): 0.518 µM

COc1ccc(S(=O)(=O)Nc2c(/C=C\c3cc(OC)c(OC)c(OC)c3)ccc(OC)c2O)cc1OC
GI50 (T-47D breast): > 86.9 µM
TGI (T-47D breast): > 100 µM

O=C(/C=C/c1ccco1)c1cccc(Nc2nc(Nc3ccccc3)nc(Nc3ccccc3)n2)c1
GI50 (T-47D breast): 3.61 µM
TGI (T-47D breast): > 100 µM

CCc1cc(Cc2cc(CC)cc(C(C)(C)C)c2O)c(O)c(C(C)(C)C)c1
GI50 (T-47D breast): 2.59 µM
TGI (T-47D breast): 7.87 µM

CCCCCCOc1ccc(/C=N/Nc2cc(C)nc3ccc(Br)cc23)cc1
GI50 (T-47D breast): 1.82 µM
TGI (T-47D breast): 3.72 µM

O=C1C2Cc3ccccc3CN2C(=O)N1CCN1CCOCC1 (stereo not drawn)
TGI (LXFL 529 NSCLC): > 100 µM
TGI (RXF-631 renal): > 100 µM
TGI (KM20L2 colon): > 100 µM
TGI (DLD-1 colon): > 100 µM

COc1ccc2c(c1)[n+](=O)c(C(=O)C/C(=N\NC(=O)C[N+](C)(C)C)C(=O)Nc1cc(Cl)ccc1Cl)c(C)n2O
TGI (LXFL 529 NSCLC): > 100 µM
TGI (HOP-18 NSCLC): > 100 µM
TGI (DLD-1 colon): > 100 µM
TGI (SNB-78 CNS): > 100 µM

CCOc1ccc(-n2cc(-c3ccc(N(C)C)cc3)[n+]3c2CCCCC3)cc1
GI50 (T-47D breast): 0.0692 µM

C=C1[C@@H]2CCC(C)(C)[C@H]1CCC(=O)[C@@H]2C(=O)OC
TGI (LXFL 529 NSCLC): > 100 µM
TGI (RXF-631 renal): > 100 µM
TGI (KM20L2 colon): > 100 µM
TGI (XF 498 CNS): > 100 µM

COc1ccc(-c2nn(C(=O)c3cc(OC)c(OC)c(OC)c3)c3cc(N)ccc23)cc1
GI50 (T-47D breast): 2.17 µM
TGI (T-47D breast): 7.58 µM

CCN(CC)[C@@H]1c2cc3c(cc2C(c2cc(OC)c(O)c(OC)c2)C2C(=O)CO[C@@H]21)OCO3 (stereo partly drawn)
TGI (LXFL 529 NSCLC): > 100 µM
TGI (RXF-631 renal): > 100 µM
TGI (KM20L2 colon): > 100 µM
TGI (XF 498 CNS): > 100 µM
TGI (DLD-1 colon): > 100 µM

COc1cc(/C=C/C(=O)c2ccc(SC)cc2)cc(OC)c1OC
GI50 (T-47D breast): 9.68 µM
TGI (T-47D breast): 62.9 µM

c1ccc2c(c1)-c1nc3ccccc3cc1C2N1CCOCC1 (stereo not drawn)
TGI (MDA-N): > 100 µM
TGI (T-47D breast): > 100 µM

COC(=O)c1cccc(COc2ccc([N+](=O)[O-])cc2Cl)c1
TGI (T-47D breast): > 100 µM

COc1ccc2nc3c(cc2c1)C(=O)CC(C(F)(F)F)C3 (stereo not drawn)
GI50 (T-47D breast): 3.7 µM
TGI (T-47D breast): > 100 µM

C[C@]12CC[C@H](O)CC1CCC[C@@H]2O (stereo partly drawn)
TGI (LXFL 529 NSCLC): > 100 µM
TGI (RXF-631 renal): > 100 µM
TGI (XF 498 CNS): > 100 µM
TGI (DLD-1 colon): > 100 µM
TGI (SNB-78 CNS): > 100 µM

O=c1c2ccc(Br)cc2nc(-c2ccccc2)n1NC1OC(CO)C(O)C(O)C1O (stereo not drawn)
TGI (LXFL 529 NSCLC): > 100 µM
TGI (KM20L2 colon): > 100 µM
TGI (XF 498 CNS): > 100 µM
TGI (HOP-18 NSCLC): > 100 µM
TGI (SNB-78 CNS): > 100 µM

NC(CSC(c1ccccc1)(c1ccccc1)c1ccc(Br)cc1)C(=O)O (stereo not drawn)
GI50 (T-47D breast): 0.345 µM
TGI (T-47D breast): > 100 µM

OC1OC2COC(c3ccccc3)OC2C(O)C1O (stereo not drawn)
TGI (LXFL 529 NSCLC): > 100 µM
TGI (KM20L2 colon): > 100 µM
TGI (XF 498 CNS): > 100 µM
TGI (HOP-18 NSCLC): > 100 µM
TGI (DLD-1 colon): > 100 µM
TGI (SNB-78 CNS): > 100 µM

Fc1cccc(C2SCc3nc4ccccc4n32)c1 (stereo not drawn)
TGI (LXFL 529 NSCLC): > 100 µM
TGI (RXF-631 renal): > 100 µM
TGI (DLD-1 colon): > 100 µM
TGI (SNB-78 CNS): > 100 µM

NC1=C(O)/C(=N/NS(=O)(=O)c2ccccc2)C(c2cccc(Cl)c2)O1 (stereo not drawn)
TGI (LXFL 529 NSCLC): 35.8 µM
TGI (MDA-N): 37.9 µM
TGI (KM20L2 colon): > 85.6 µM
TGI (HOP-18 NSCLC): > 100 µM
TGI (DLD-1 colon): 31.7 µM
TGI (SNB-78 CNS): > 100 µM
